Test results from patent US9630956B2, “Compounds useful as inhibitors of ATR kinase” (Vertex Pharmaceuticals Incorporated, priority 2010, dated 2017).

Target: full-length ATR (Homo sapiens (Human), UniProt Q13535)
Assay: ATR Inhibition Assay (radioactive-phosphate incorporation)
Type: biochemical
Details: not given
Procedure: Compounds were screened for their ability to inhibit ATR kinase using a radioactive-phosphate incorporation assay. Assays were carried out in a mixture of 50 mM Tris/HCl (pH 7.5), 10 mM MgCl2 and 1 mM DTT. Final substrate concentrations were 10 μM [γ-33P]ATP (3 mCi 33P ATP/mmol ATP, Perkin Elmer) and 800 μM target peptide ([…]).
Assays were carried out at 25° C. in the presence of 5 nM full-length ATR. An assay stock buffer solution was prepared containing all of the reagents listed above, with the exception of ATP and the test compound of interest. 13.5 μL of the stock solution was placed in a 96 well plate followed by addition of 2 μL of DMSO stock containing serial dilutions of the test compound (typically starting from a final concentration of 15 μM with 3-fold serial dilutions) in duplicate (final DMSO concentration 7%). The plate was pre-incubated for 10 minutes at 25° C. and the reaction initiated by addition of 15 μL [γ-33P]ATP (final concentration 10 μM).
The reaction was stopped after 24 hours by the addition of 30 μL 0.1 M phosphoric acid containing 2 mM ATP. A multiscreen phosphocellulose filter 96-well plate (Millipore, Cat no. MAPHNOB50) was pretreated with 100 μL 0.2M phosphoric acid prior to the addition of 45 μL of the stopped assay mixture. The plate was washed with 5×200 μL 0.2M phosphoric acid. After drying, 100 μL Optiphase ‘SuperMix’ liquid scintillation cocktail (Perkin Elmer) was added to the well prior to scintillation counting (1450 Microbeta Liquid Scintillation Counter, Wallac).
After removing mean background values for all of the data points, Ki(app) data were calculated from non-linear regression analysis of the initial rate data using the Prism software package (GraphPad Prism version 3.0cx for Macintosh, GraphPad Software, San Diego Calif., USA).
Below is a chart showing the ATR Inhibition Ki values of compounds of the disclosure.

full-length ATR, sequence (Q13535 whole entry): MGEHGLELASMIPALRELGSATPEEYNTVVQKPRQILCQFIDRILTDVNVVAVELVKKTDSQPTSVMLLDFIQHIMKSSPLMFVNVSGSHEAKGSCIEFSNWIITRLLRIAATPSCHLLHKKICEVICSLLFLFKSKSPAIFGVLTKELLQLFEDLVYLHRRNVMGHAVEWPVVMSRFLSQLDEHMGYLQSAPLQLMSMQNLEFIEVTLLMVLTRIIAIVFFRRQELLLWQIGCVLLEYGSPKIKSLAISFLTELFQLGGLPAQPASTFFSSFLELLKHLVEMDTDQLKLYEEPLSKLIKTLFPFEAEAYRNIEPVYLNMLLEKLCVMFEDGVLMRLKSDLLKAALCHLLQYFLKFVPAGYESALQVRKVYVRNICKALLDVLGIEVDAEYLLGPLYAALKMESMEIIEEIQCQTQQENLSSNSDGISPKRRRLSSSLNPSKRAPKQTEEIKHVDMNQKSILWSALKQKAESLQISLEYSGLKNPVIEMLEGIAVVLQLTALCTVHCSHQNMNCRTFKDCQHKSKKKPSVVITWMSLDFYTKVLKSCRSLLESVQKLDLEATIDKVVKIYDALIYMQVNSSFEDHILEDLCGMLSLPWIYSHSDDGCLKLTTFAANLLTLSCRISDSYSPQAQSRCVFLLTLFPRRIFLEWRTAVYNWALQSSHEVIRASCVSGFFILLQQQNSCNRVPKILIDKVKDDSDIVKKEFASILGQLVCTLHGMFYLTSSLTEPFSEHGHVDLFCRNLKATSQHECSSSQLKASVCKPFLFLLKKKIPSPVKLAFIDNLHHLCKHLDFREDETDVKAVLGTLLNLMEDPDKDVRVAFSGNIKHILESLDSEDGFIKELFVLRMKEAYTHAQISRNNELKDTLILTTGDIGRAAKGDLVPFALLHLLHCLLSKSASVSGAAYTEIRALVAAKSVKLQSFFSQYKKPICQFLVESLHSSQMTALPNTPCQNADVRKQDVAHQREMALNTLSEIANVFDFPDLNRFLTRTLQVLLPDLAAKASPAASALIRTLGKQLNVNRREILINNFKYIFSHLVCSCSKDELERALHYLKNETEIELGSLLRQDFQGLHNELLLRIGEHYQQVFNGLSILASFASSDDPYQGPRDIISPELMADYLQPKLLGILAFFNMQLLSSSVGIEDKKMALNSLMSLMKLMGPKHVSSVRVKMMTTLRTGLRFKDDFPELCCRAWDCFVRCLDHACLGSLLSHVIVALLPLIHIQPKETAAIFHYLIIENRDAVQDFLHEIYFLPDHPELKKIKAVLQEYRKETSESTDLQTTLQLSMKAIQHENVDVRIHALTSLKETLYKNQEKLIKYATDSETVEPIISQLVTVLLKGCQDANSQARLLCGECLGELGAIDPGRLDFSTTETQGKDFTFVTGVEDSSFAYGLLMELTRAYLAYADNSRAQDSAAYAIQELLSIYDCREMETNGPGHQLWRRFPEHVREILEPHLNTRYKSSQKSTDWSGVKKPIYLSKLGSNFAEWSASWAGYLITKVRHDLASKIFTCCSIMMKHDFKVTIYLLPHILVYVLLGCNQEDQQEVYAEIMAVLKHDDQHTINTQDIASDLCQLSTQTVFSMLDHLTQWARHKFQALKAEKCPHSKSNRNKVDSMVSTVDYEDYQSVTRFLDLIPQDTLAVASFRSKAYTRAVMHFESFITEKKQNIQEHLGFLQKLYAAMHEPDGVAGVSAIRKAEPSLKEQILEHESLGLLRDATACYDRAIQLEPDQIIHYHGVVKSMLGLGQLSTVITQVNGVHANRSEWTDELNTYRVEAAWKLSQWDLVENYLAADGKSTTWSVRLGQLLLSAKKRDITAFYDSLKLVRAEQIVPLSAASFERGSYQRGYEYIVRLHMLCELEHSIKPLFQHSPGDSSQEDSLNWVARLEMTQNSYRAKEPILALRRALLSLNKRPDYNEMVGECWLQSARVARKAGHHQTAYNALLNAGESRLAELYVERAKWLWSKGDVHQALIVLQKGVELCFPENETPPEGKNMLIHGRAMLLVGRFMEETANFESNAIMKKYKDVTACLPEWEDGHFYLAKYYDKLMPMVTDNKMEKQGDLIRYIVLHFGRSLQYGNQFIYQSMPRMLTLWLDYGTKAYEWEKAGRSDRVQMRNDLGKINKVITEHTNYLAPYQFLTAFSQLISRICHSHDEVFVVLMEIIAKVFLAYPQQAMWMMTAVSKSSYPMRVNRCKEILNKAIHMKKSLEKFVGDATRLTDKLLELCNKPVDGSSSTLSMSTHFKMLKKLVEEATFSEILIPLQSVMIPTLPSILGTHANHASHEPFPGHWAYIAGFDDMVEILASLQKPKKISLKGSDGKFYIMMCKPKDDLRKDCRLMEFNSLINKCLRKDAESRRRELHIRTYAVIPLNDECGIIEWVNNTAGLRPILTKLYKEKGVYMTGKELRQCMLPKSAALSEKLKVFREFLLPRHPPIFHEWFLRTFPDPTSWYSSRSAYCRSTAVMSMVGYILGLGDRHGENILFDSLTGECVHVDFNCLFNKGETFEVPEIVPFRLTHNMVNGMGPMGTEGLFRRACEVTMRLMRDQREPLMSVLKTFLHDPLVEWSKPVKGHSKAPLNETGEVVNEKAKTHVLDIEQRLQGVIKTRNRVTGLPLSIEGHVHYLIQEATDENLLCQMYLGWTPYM

| SMILES | Ki [nM] |
| --- | --- |
| CNCc1ccc(-c2nnc(-c3nc(-c4ccc(=O)n(CCOC)c4)cnc3N)o2)cc1 [Compound I-2] | 5 to 50 |
| CNCc1ccc(-c2nnc(-c3nc(-c4ccc(=O)n(CCO)c4)cnc3N)o2)cc1 [Compound I-4] | 5 to 50 |
| CNCc1ccc(-c2nnc(-c3nc(-c4ccc(=O)n(CCCN)c4)cnc3N)o2)cc1 [Compound I-5] | 50 to 100 |
| CNCc1ccc(-c2nnc(-c3nc(-c4ccc(=O)n(CCN(C)C)c4)cnc3N)o2)c(C)c1 [Compound I-24, 5-[5-amino-6-[5-[2-methyl-4-(methylaminomethyl)phenyl]-1,3,4-oxadiazol-2-yl]pyrazin-2-yl]-1-(2-dimethylaminoethyl)pyridin-2-one] | 5 to 50 |
| Nc1ncc(-c2ccc(=O)n(C3CCCC3)c2)nc1-c1cc(-c2ccc(CN3CCCC3)cc2)no1 [Compound I-51] | 5 to 50 |

The remaining lines, values ahead:

| Ki [nM] | SMILES |
| --- | --- |
| 5 to 50 | CNCc1ccc(-c2nnc(-c3nc(-c4ccc(=O)n(C5CCOC5)c4)cnc3N)o2)c(OC)c1 (stereo not shown) [Compound I-8] |
| 5 to 50 | CNCc1ccc(-c2nnc(-c3nc(-c4ccc(=O)n(C5CCOC5)c4)cnc3N)o2)cc1 (stereo not shown) [Compound I-9] |
| 5 to 50 | CNCc1ccc(-c2nnc(-c3nc(-c4ccc(=O)n(C(C)C(=O)O)c4)cnc3N)o2)c(C)c1 (stereo not shown) [Compound I-38, 2-[5-[5-amino-6-[5-[2-methyl-4-(methylaminomethyl)phenyl]-1,3,4-oxadiazol-2-yl]pyrazin-2-yl]-2-oxo-1-pyridyl]propanoic acid] |
| 5 to 50 | CNCc1cccc(-c2nnc(-c3nc(-c4ccc(=O)n(C(C)C)c4)cnc3N)o2)c1 [Compound I-47, 5-[5-amino-6-[5-[3-(methylaminomethyl)phenyl]-1,3,4-oxadiazol-2-yl]pyrazin-2-yl]-1-isopropyl-pyridin-2-one] |
| 5 to 50 | CC(C)(CO)NCc1ccc(-c2cc(-c3nc(-c4ccc(=O)n(C5CCCC5)c4)cnc3N)on2)cc1 [Compound I-52] |
| 50 to 100 | CC(C)n1cc(-c2cnc(N)c(-c3cc(-c4ccc(CNc5ccccc5)cc4)no3)n2)ccc1=O [Compound I-65] |

Same assay, conditions: ATR Inhibition Ki(app); 10 μM ATP, 800 μM target peptide, 5 nM full-length ATR, 25° C.

| SMILES | Ki [nM] |
| --- | --- |
| Cc1cc(CN[C@H]2CCOC2)ccc1-c1nnc(-c2nc(-c3ccc(=O)n(C(C)C)c3)cnc2N)o1 [Compound I-13, 5-[5-amino-6-[5-[2-methyl-4-[[[(3S)-tetrahydrofuran-3-yl]amino]methyl]phenyl]-1,3,4-oxadiazol-2-yl]pyrazin-2-yl]-1-isopropyl-pyridin-2-one] | ≤ 5 |
| CNCc1ccc(-c2nnc(-c3nc(-c4ccc(=O)n(C(C)C5CC5)c4)cnc3N)o2)c(C)c1 (stereo not shown) [Compound I-18] | ≤ 5 |
| CCn1cc(-c2cnc(N)c(-c3nnc(-c4ccc(CNC)cc4OC)o3)n2)ccc1=O [Compound I-19] | ≤ 5 |
| Cc1cc(CNC(C)C)ccc1-c1nnc(-c2nc(-c3ccc(=O)n(C(C)C)c3)cnc2N)o1 [Compound I-20] | ≤ 5 |
| CNCc1ccc(-c2nnc(-c3nc(-c4ccc(=O)n(CC(C)C)c4)cnc3N)o2)c(OC)c1 [Compound I-26] | ≤ 5 |
| CNCc1ccc(-c2nnc(-c3nc(-c4ccc(=O)n(CC(F)(F)F)c4)cnc3N)o2)c(C)c1 [Compound I-27] | ≤ 5 |
| CC#CC(C)n1cc(-c2cnc(N)c(-c3nnc(-c4ccc(CNC)cc4C)o3)n2)ccc1=O (stereo not shown) [Compound I-30] | ≤ 5 |
| CNCc1ccc(-c2nnc(-c3nc(-c4ccc(=O)n(C5CCC5)c4)cnc3N)o2)c(C)c1 [Compound I-33] | ≤ 5 |
| CNCc1ccc(-c2nnc(-c3nc(-c4ccc(=O)n(C(C)C#N)c4)cnc3N)o2)c(OC)c1 (stereo not shown) [Compound I-34, 2-[5-[5-amino-6-[5-[2-methoxy-4-(methylaminomethyl)phenyl]-1,3,4-oxadiazol-2-yl]pyrazin-2-yl]-2-oxo-1-pyridyl]propanenitrile] | ≤ 5 |
| COc1cc(CNC(C)(C)C)ccc1-c1nnc(-c2nc(-c3ccc(=O)n(C(C)C)c3)cnc2N)o1 [Compound I-35] | ≤ 5 |
| CC(C)n1cc(-c2cnc(N)c(-c3nnc(-c4cccc(CNC(C)(C)C)c4)o3)n2)ccc1=O [Compound I-46] | 50 to 100 |
| CNCc1ccc(-c2cc(-c3nc(-c4ccc(=O)n(C5CCCC5)c4)cnc3N)on2)c(F)c1 [Compound I-56] | ≤ 5 |
| CC(C)n1cc(-c2cnc(N)c(-c3cc(-c4ccc(C(N)CF)cc4)no3)n2)ccc1=O (stereo not shown) [Compound I-59] | 5 to 50 |
| CNCc1ccc(-c2cc(-c3nc(-c4ccc(=O)n(C5CCOCC5)c4)cnc3N)on2)cc1 [Compound I-66] | ≤ 5 |
| CNCc1ccc(-c2cc(-c3nc(-c4cc(Br)c(=O)n(C(C)C)c4)cnc3N)on2)cc1 [Compound I-71] | 5 to 50 |
| CNCc1ccc(-c2cc(-c3nc(-c4ccc(=O)n(C(C)C5CC5)c4)cnc3N)on2)cc1 (stereo not shown) [Compound I-79] | ≤ 5 |
| CNCc1ccc(-c2cc(-c3nc(-c4ccc(=O)n(Cc5nccs5)c4)cnc3N)on2)cc1 [Compound I-84] | ≤ 5 |
| CNCc1ccc(-c2cc(-c3nc(-c4ccc(=O)n(CC5CCCO5)c4)cnc3N)on2)cc1 (stereo not shown) [Compound I-86] | ≤ 5 |
| CNCc1ccc(-c2cc(-c3nc(-c4ccc(=O)n(C(C)C(=O)NC)c4)cnc3N)on2)cc1 (stereo not shown) [Compound I-91] | ≤ 5 |
| CNCc1ccc(-c2cc(-c3nc(-c4ccc(=O)n(CC(N)=O)c4)cnc3N)on2)cc1 [Compound I-98] | ≤ 5 |
| CC(C#N)n1cc(-c2cnc(N)c(-c3cc(-c4ccc(CNC5CC5)cc4)no3)n2)ccc1=O (stereo not shown) [Compound I-99] | ≤ 5 |

Other lines, results leading:

| Ki [nM] | SMILES |
| --- | --- |
| 5 to 50 | CNCc1ccc(-c2nnc(-c3nc(-c4ccc(=O)n(C)c4)cnc3N)o2)cc1 [Compound I-1] |
| 5 to 50 | CNCc1ccc(-c2nnc(-c3nc(-c4ccc(=O)n(CC#N)c4)cnc3N)o2)cc1 [Compound I-7] |
| ≤ 5 | CNCc1ccc(-c2nnc(-c3nc(-c4ccc(=O)n(C(C)C)c4)cnc3N)o2)c(F)c1 [Compound I-10] |
| ≤ 5 | CNCc1ccc(-c2nnc(-c3nc(-c4ccc(=O)n(C(C)C)c4)cnc3N)o2)c(C)c1 [Compound I-12] |
| ≤ 5 | CNCc1ccc(-c2nnc(-c3nc(-c4ccc(=O)n(C5CCCC5)c4)cnc3N)o2)c(C)c1 [Compound I-14] |
| ≤ 5 | CNCc1ccc(-c2nnc(-c3nc(-c4ccc(=O)n(C(C)C#N)c4)cnc3N)o2)c(C)c1 (stereo not shown) [Compound I-16] |
| ≤ 5 | CNCc1ccc(-c2nnc(-c3nc(-c4ccc(=O)n(C(C)COC)c4)cnc3N)o2)c(C)c1 (stereo not shown) [Compound I-17] |
| ≤ 5 | Cc1cc(CNC(C)(C)C)ccc1-c1nnc(-c2nc(-c3ccc(=O)n(C(C)C)c3)cnc2N)o1 [Compound I-21] |
| ≤ 5 | CC(C)n1cc(-c2cnc(N)c(-c3cc(-c4ccc(CN[C@H]5CCOC5)cc4)no3)n2)ccc1=O [Compound I-23] |
| ≤ 5 | CCC(C)n1cc(-c2cnc(N)c(-c3nnc(-c4ccc(CNC)cc4OC)o3)n2)ccc1=O (stereo not shown) [Compound I-25] |
| ≤ 5 | CNCc1ccc(-c2nnc(-c3nc(-c4ccc(=O)n(CC(F)(F)F)c4)cnc3N)o2)c(OC)c1 [Compound I-28] |
| ≤ 5 | CNCc1ccc(-c2cc(-c3nc(-c4ccc(=O)n(C(C)C)c4)cnc3N)on2)c(F)c1 [Compound I-29] |
| 5 to 50 | CNCc1ccc(-c2nnc(-c3nc(-c4ccc(=O)n(C(C)CF)c4)cnc3N)o2)c(C)c1 (stereo not shown) [Compound I-31] |
| ≤ 5 | CNCc1ccc(-c2nnc(-c3nc(-c4ccc(=O)n(C(C)CO)c4)cnc3N)o2)c(OC)c1 (stereo not shown) [Compound I-36] |
| 5 to 50 | CC(C)n1cc(-c2cnc(N)c(-c3nnc(-c4ccc(CNC(C)(C)C)cc4C#N)o3)n2)ccc1=O [Compound I-40] |
| ≤ 5 | CNCc1ccc(-c2nnc(-c3nc(-c4ccc(=O)n(C(C)C(F)(F)F)c4)cnc3N)o2)c(OC)c1 (stereo not shown) [Compound I-41] |
| 5 to 50 | CC(N)c1ccc(-c2nnc(-c3nc(-c4ccc(=O)n(C(C)C)c4)cnc3N)o2)cc1 (stereo not shown) [Compound I-45] |
| 50 to 100 | C=Cc1cc(-c2cnc(N)c(-c3cc(-c4ccc(CNC)cc4)no3)n2)cn(C(C)C)c1=O [Compound I-67] |
| ≤ 5 | CNCc1ccc(-c2cc(-c3nc(-c4ccc(=O)n(Cc5ccoc5)c4)cnc3N)on2)cc1 [Compound I-69] |
| ≤ 5 | CNCc1ccc(-c2cc(-c3nc(-c4ccc(=O)n(CCN5CCCC5=O)c4)cnc3N)on2)cc1 [Compound I-70] |
| 50 to 100 | CCc1cc(-c2cnc(N)c(-c3cc(-c4ccc(CNC)cc4)no3)n2)cn(C(C)C)c1=O [Compound I-75] |
| 5 to 50 | CNCc1ccc(-c2cc(-c3nc(-c4ccc(=O)[nH]c4)cnc3N)on2)cc1 [Compound I-76] |
| ≤ 5 | CNCc1ccc(-c2cc(-c3nc(-c4ccc(=O)n(Cc5nccn5C)c4)cnc3N)on2)cc1 [Compound I-85] |
| ≤ 5 | CNCc1ccc(-c2cc(-c3nc(-c4c[nH]c(=O)c(CO)c4)cnc3N)on2)cc1 [Compound I-88] |
| ≤ 5 | CNCc1ccc(-c2cc(-c3nc(-c4ccc(=O)n(CCOC)c4)cnc3N)on2)cc1 [Compound I-95] |
| ≤ 5 | CNCc1ccc(-c2cc(-c3nc(-c4c[nH]c(=O)c(C(C)C)c4)cnc3N)on2)cc1 [Compound I-100] |
